# Test results published in PubChem BioAssay (NCI).
#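 Grown in 96-well plates, cells were treated for 48 hours with each compound at five concentrations. Insufficient inhibition: endpoint recorded as highest concentration tested. The concentration for full growth arrest is given as TGI.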
# What was measured:
# Experiment in all cases: NCI anticancer screen, dose series, 48 h
# [1] = system: DMS 114 small cell lung
# [2] = system: HCC-2998 colon
# [3] = system: SNB-78 CNS
# [4] = system: OVCAR-4 ovarian
# [5] = system: TK-10 renal
# [6] = system: DLD-1 colon
# [7] = system: UACC-62 melanoma
# [8] = system: K-562 leukemia
# [9] = system: KM20L2 colon
# [10] = system: SF-295 CNS
# [11] = system: SF-539 CNS
# [12] = system: IGROV1 ovarian
# [13] = system: SN12C renal
# [14] = system: ACHN renal
# [15] = system: M14 melanoma
# [16] = system: DMS 273 small cell lung
# [17] = system: OVCAR-3 ovarian
# [18] = system: NCI-H23 lung
# [19] = system: NCI-H460 lung
# [20] = system: HCT-116 colon
# [21] = system: RXF-631 renal
# [22] = system: SK-MEL-28 melanoma
# [23] = system: NCI-H522 lung
# [24] = system: SNB-19 CNS
# [25] = system: HOP-62 NSCLC
# [26] = system: SW-620 colon
# [27] = system: HCT-15 colon
# [28] = system: A549 NSCLC
# [29] = system: KM12 colon
# [30] = system: M19-MEL melanoma
# [31] = system: HL-60(TB) leukemia
# [32] = system: MOLT-4 leukemia
# [33] = system: A498 renal
# [34] = system: MALME-3M melanoma
# [35] = system: U251 CNS
# [36] = system: CAKI-1 renal
# [37] = system: UACC-257 melanoma
# [38] = system: UO-31 renal
# [39] = system: RXF 393 renal
# [40] = system: 786-0 renal
# [41] = system: OVCAR-5 ovarian
# [42] = system: COLO 205 colon
# [43] = system: SK-OV-3 ovarian
# [44] = system: SF-268 CNS
# [45] = system: SK-MEL-5 melanoma
# [46] = system: OVCAR-8 ovarian
# [47] = system: SK-MEL-2 melanoma
# [48] = system: SNB-75 CNS
# [49] = system: EKVX NSCLC
# [50] = system: SR leukemia
# [51] = system: CCRF-CEM leukemia
# [52] = system: NCI-H226 lung
# [53] = system: HT29 colon
# [54] = system: RPMI-8226 leukemia
# [55] = system: LOX IMVI melanoma
# [56] = system: HOP-18 NSCLC
# [57] = system: LXFL 529 NSCLC
# [58] = system: HOP-92 NSCLC
smiles,measurement,setting,value
CC(C)CC(N=Cc1nc(-c2ccccc2)oc1O)C(=O)O (stereo not given),TGI,[1],> 100 µM
same,TGI,[2],> 100 µM
same,TGI,[3],> 100 µM
same,TGI,[4],> 100 µM
same,TGI,[5],> 100 µM
same,TGI,[6],> 100 µM
same,TGI,[7],> 100 µM
same,TGI,[8],> 100 µM
same,TGI,[9],> 100 µM
same,TGI,[10],> 100 µM
same,TGI,[11],> 100 µM
same,TGI,[12],> 100 µM
same,TGI,[13],> 100 µM
same,TGI,[14],> 100 µM
same,TGI,[15],> 100 µM
same,TGI,[16],> 100 µM
same,TGI,[17],> 100 µM
same,TGI,[18],> 100 µM
same,TGI,[19],> 100 µM
same,TGI,[20],> 100 µM
same,TGI,[21],> 100 µM
same,TGI,[22],> 100 µM
same,TGI,[23],> 100 µM
same,TGI,[24],> 100 µM
same,TGI,[25],> 100 µM
same,TGI,[26],> 100 µM
same,TGI,[27],> 100 µM
same,TGI,[28],> 100 µM
same,TGI,[29],> 100 µM
same,TGI,[30],> 100 µM
same,TGI,[31],> 100 µM
same,TGI,[32],> 100 µM
same,TGI,[33],> 100 µM
same,TGI,[34],> 100 µM
same,TGI,[35],> 100 µM
same,TGI,[36],> 100 µM
same,TGI,[37],> 100 µM
same,TGI,[38],> 100 µM
same,TGI,[39],> 100 µM
same,TGI,[40],> 100 µM
same,TGI,[41],> 100 µM
same,TGI,[42],> 100 µM
same,TGI,[43],> 100 µM
same,TGI,[44],> 100 µM
same,TGI,[45],> 100 µM
same,TGI,[46],> 100 µM
same,TGI,[47],> 100 µM
same,TGI,[48],> 100 µM
same,TGI,[49],> 100 µM
same,TGI,[50],> 100 µM
same,TGI,[51],> 100 µM
same,TGI,[52],> 100 µM
same,TGI,[53],> 100 µM
same,TGI,[54],> 100 µM
same,TGI,[55],> 100 µM
COc1ccc(OC)c2c(C(=O)O)c(C(C)c3ccccc3)ccc12 (stereo not given),TGI,[2],> 100 µM
same,TGI,[4],> 100 µM
same,TGI,[5],> 100 µM
same,TGI,[6],> 100 µM
same,TGI,[7],> 100 µM
same,TGI,[8],> 100 µM
same,TGI,[9],> 100 µM
same,TGI,[10],> 100 µM
same,TGI,[12],> 100 µM
same,TGI,[13],> 100 µM
same,TGI,[14],> 100 µM
same,TGI,[15],> 100 µM
same,TGI,[16],> 100 µM
same,TGI,[17],> 100 µM
same,TGI,[18],> 100 µM
same,TGI,[19],> 100 µM
same,TGI,[20],> 100 µM
same,TGI,[21],> 100 µM
same,TGI,[22],> 100 µM
same,TGI,[23],> 100 µM
same,TGI,[24],> 100 µM
same,TGI,[25],> 100 µM
same,TGI,[26],> 100 µM
same,TGI,[27],> 100 µM
same,TGI,[28],> 100 µM
same,TGI,[29],> 100 µM
same,TGI,[30],> 100 µM
same,TGI,[31],> 100 µM
same,TGI,[32],> 100 µM
same,TGI,[33],> 100 µM
same,TGI,[34],> 100 µM
same,TGI,[35],> 100 µM
same,TGI,[36],> 100 µM
same,TGI,[37],> 100 µM
same,TGI,[38],> 100 µM
same,TGI,[39],> 100 µM
same,TGI,[40],> 100 µM
same,TGI,[41],> 100 µM
same,TGI,[42],> 100 µM
same,TGI,[43],> 100 µM
same,TGI,[44],> 100 µM
same,TGI,[45],> 100 µM
same,TGI,[46],> 100 µM
same,TGI,[47],> 100 µM
same,TGI,[56],> 100 µM
same,TGI,[48],> 100 µM
same,TGI,[49],> 100 µM
same,TGI,[50],> 100 µM
same,TGI,[51],> 100 µM
same,TGI,[57],> 100 µM
same,TGI,[52],> 100 µM
same,TGI,[53],> 100 µM
same,TGI,[55],> 100 µM
O=C(C=P(c1ccccc1)(c1ccccc1)c1ccccc1)CC(=S)CC(=O)C=P(c1ccccc1)(c1ccccc1)c1ccccc1,TGI,[1],27 µM
same,TGI,[2],14.7 µM
same,TGI,[4],> 100 µM
same,TGI,[5],50.8 µM
same,TGI,[6],17.9 µM
same,TGI,[7],47.1 µM
same,TGI,[8],> 100 µM
same,TGI,[9],> 100 µM
same,TGI,[10],14.5 µM
same,TGI,[11],25 µM
same,TGI,[12],> 100 µM
same,TGI,[58],6.09 µM
same,TGI,[13],17.9 µM
same,TGI,[14],53.6 µM
same,TGI,[15],20.5 µM
same,TGI,[16],10.1 µM
same,TGI,[17],12.5 µM
same,TGI,[18],16.4 µM
same,TGI,[19],46.7 µM
same,TGI,[20],> 100 µM
same,TGI,[21],> 100 µM
same,TGI,[22],> 100 µM
same,TGI,[23],15.7 µM
same,TGI,[24],> 100 µM
same,TGI,[25],24.8 µM
same,TGI,[26],> 100 µM
same,TGI,[27],29.3 µM
same,TGI,[28],> 100 µM
same,TGI,[29],18.8 µM
same,TGI,[30],> 100 µM
same,TGI,[33],20.6 µM
same,TGI,[34],> 100 µM
same,TGI,[35],11.7 µM
same,TGI,[36],> 100 µM
same,TGI,[37],13 µM
same,TGI,[38],98.9 µM
same,TGI,[39],25.2 µM
same,TGI,[40],> 100 µM
same,TGI,[41],80 µM
same,TGI,[42],3.71 µM
same,TGI,[43],> 100 µM
same,TGI,[44],> 100 µM
same,TGI,[45],8.26 µM
same,TGI,[46],22.9 µM
same,TGI,[56],9.04 µM
same,TGI,[49],> 100 µM
same,TGI,[51],> 100 µM
same,TGI,[57],20.1 µM
same,TGI,[52],24.1 µM
same,TGI,[53],> 100 µM
same,TGI,[54],> 100 µM
same,TGI,[55],> 100 µM
